Assay results: patent US8697739B2, “Bicyclic acetyl-CoA carboxylase inhibitors and uses thereof” (Novartis AG, priority 2010, dated 2014)

Target: T1, human acetyl-CoA carboxylase 2 (ACC2) (Homo sapiens, UniProt O00763)
T1 construct: The cDNA encoding amino acids 144 to 2458 of human acetyl-CoA carboxylase 2; made in house; host or cells: Sf9 insect cells (baculovirus, pFastBac1)
Test: Acetyl-CoA carboxylase enzyme assay (malonyl-CoA formation by LC/MS/MS)
Format: biochemical
Conditions: recombinant human ACC2 (aa 144-2458); read-out: IC50 ACC2
Procedure, shortened: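 Malonyl-CoA formation was read by LC/MS/MS MRM against a [13C3]-malonyl-CoA internal standard, after acetic acid quench. The enzyme was baculovirus/Sf9-expressed human ACC2 residues 144–2458, given 15 minutes room-temperature compound preincubation in HEPES pH 7.5 buffer with MgCl2, citrate and DTT. Substrate solution held 50 μM acetyl-CoA, 120 μM ATP and 2 mM KHCO3.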

T1 sequence (O00763 144-2458): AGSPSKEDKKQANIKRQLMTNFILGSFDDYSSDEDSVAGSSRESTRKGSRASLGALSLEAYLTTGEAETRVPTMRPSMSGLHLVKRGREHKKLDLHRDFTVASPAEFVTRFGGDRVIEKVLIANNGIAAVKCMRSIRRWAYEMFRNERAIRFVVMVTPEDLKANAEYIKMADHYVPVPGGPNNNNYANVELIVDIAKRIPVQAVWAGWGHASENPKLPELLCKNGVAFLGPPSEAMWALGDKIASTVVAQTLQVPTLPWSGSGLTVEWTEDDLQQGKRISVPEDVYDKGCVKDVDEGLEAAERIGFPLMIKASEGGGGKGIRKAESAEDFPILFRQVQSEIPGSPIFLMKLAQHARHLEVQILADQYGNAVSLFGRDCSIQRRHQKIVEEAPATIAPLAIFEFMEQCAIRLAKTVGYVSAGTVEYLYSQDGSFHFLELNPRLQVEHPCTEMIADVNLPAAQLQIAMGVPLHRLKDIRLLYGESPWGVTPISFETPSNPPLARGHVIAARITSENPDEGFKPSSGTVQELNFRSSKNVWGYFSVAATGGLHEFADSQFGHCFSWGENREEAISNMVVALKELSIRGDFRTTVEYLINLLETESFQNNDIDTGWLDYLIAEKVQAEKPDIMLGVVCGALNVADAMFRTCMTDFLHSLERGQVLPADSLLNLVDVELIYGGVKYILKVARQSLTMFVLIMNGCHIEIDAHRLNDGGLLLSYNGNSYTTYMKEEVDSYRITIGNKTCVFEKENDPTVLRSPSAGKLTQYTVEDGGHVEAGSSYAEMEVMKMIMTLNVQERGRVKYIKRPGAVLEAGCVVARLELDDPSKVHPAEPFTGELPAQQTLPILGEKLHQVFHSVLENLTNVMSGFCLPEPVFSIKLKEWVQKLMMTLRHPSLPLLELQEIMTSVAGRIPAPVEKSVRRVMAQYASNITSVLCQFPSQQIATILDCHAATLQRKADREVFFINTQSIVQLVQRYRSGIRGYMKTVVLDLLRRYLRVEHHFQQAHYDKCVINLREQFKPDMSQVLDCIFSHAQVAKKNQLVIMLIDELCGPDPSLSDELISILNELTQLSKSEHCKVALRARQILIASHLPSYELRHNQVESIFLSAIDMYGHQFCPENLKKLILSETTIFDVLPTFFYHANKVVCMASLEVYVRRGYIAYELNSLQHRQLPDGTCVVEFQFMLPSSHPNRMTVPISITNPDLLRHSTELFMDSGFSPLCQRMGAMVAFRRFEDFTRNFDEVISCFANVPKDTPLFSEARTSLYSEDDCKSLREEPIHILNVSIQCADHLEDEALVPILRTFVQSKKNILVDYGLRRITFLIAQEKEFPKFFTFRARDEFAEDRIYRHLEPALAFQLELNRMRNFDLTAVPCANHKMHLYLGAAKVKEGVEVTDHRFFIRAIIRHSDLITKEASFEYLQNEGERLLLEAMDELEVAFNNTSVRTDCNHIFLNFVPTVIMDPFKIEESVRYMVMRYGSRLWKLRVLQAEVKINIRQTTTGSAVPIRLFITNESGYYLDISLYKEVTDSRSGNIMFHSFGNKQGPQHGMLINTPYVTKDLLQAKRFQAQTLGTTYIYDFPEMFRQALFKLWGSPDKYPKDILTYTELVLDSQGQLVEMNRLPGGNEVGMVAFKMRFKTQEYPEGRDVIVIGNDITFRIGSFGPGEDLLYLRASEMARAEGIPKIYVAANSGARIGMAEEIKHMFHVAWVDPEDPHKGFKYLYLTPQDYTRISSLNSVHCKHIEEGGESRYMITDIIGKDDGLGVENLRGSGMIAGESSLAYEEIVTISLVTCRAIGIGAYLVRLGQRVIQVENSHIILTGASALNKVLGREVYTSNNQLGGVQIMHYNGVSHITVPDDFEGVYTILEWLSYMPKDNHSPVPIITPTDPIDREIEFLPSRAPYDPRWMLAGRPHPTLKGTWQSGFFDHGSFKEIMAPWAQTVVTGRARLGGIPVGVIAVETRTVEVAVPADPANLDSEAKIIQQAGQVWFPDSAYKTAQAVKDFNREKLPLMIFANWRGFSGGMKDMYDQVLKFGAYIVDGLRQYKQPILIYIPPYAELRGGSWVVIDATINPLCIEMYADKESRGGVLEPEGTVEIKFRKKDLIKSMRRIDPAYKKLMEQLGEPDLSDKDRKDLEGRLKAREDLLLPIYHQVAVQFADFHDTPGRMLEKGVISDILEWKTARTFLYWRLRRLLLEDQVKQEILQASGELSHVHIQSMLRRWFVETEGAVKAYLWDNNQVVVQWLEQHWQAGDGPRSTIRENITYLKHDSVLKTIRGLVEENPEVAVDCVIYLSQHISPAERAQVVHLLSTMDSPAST

| Structure (SMILES) | IC50 [nM] |
| --- | --- |
| COCc1ccc(-c2cc3ccc(S(=O)(=O)N[C@H]4CC[C@H](C(=O)N5CCOC[C@@H]5C(C)C)CC4)cc3n2C)cc1 [Example 438, N-((1S,4r)-4-((S)-3-isopropylmorpholine-4-carbonyl)cyclohexyl)-2-(4-(methoxymethyl)phenyl)-1-methyl-1H-indole-6-sulfonamide] | < 10 |
| CC(C)c1nnc(-c2ccc(NS(=O)(=O)c3ccc4[nH]c(-c5ccc(N6CCN(C)CC6)cc5)nc4c3)cc2)o1 [Example 590, N-(4-(5-isopropyl-1,3,4-oxadiazol-2-yl)phenyl)-2-(4-(4-methylpiperazin-1-yl)phenyl)-1H-benzo[d]imidazole-5-sulfonamide] | 430 |
| CC(C)OC(=O)c1ccc(NS(=O)(=O)c2ccc3nc(-c4ccc(O)cc4)[nH]c3c2)cc1 [Example 503, isopropyl 4-(2-(4-hydroxyphenyl)-1H-benzo[d]imidazole-6-sulfonamido)benzoate] | 819 |
| C[C@@H](NC(=O)[C@H]1CC[C@H](NS(=O)(=O)c2ccc3nc(N4CCN(C(=O)OC(C)(C)C)CC4)ccc3c2)CC1)c1ccc(F)cc1 [Example 232, tert-butyl 4-(6-(N-((1R,4r)-4-((R)-1-(4-fluorophenyl)ethylcarbamoyl)cyclohexyl)sulfamoyl)quinolin-2-yl)piperazine-1-carboxylate] | 765 |
| O=C([C@H]1CC[C@H](NS(=O)(=O)c2ccc3c(c2)Cc2ccccc2-3)CC1)N1CCNC[C@@H]1c1ccccc1 [Example 244, N-((1S,4r)-4-((S)-2-phenylpiperazine-1-carbonyl)cyclohexyl)-9H-fluorene-2-sulfonamide] | < 10 |
| C[C@@H]1CN(C(=O)[C@H]2CC[C@H](NS(=O)(=O)c3ccc4cc(-c5ccccc5)n(C)c4c3)CC2)C[C@H](C)O1 [Example 419, N-((1R,4r)-4-((2S,6R)-2,6-dimethylmorpholine-4-carbonyl)cyclohexyl)-1-methyl-2-phenyl-1H-indole-6-sulfonamide] | 35 |
| O=S(=O)(Nc1ccc(-c2nnc(C3CCCCC3)o2)cc1)c1ccc2nc(-c3ccccc3)[nH]c2c1 [Example 519, N-(4-(5-cyclohexyl-1,3,4-oxadiazol-2-yl)phenyl)-2-phenyl-1H-benzo[d]imidazole-6-sulfonamide] | 32000 |
| CC(C)[C@H](N)C(=O)OCc1ccc(-c2cc3ccc(S(=O)(=O)N[C@H]4CC[C@H](C(=O)N[C@H](C)c5ccc(F)cc5)CC4)cc3[nH]2)cc1 [Example 27, (S)-4-(6-(N-((1R,4r)-4-((R)-1-(4-fluorophenyl)ethylcarbamoyl)cyclohexyl)sulfamoyl)-1H-indol-2-yl)benzyl 2-amino-3-methylbutanoate] | < 10 |
| C[C@@H]1CN(C(=O)[C@H]2CC[C@H](NS(=O)(=O)c3ccc4[nH]c(-c5ccccc5)nc4c3)CC2)C[C@H](C)O1 [Example 664, N-((1R,4r)-4-((2S,6R)-2,6-dimethylmorpholine-4-carbonyl)cyclohexyl)-2-phenyl-1H-benzo[d]imidazole-5-sulfonamide] | 54 |
| COC(=O)C12CC3CC(C1)C(NS(=O)(=O)c1ccc4oc5ccccc5c4c1)C(C3)C2 (centres unmarked) [Example 265, 4-(Dibenzofuran-2-sulfonylamino)-adamantane-1-carboxylic acid methyl ester] | 685 |
| Cc1cc(CO)ccc1-c1cc2ccc(S(=O)(=O)N[C@H]3CC[C@H](C(=O)N4CCNC[C@@H]4c4ccccc4)CC3)cc2[nH]1 [Example 313, 2-(4-(hydroxymethyl)-2-methylphenyl)-N-((1S,4r)-4-((S)-2-phenylpiperazine-1-carbonyl)cyclohexyl)-1H-indole-6-sulfonamide] | < 10 |
| Cn1c(C2CC2)cc2ccc(S(=O)(=O)N[C@H]3CC[C@H](C(=O)N4CCNC(C(F)(F)F)C4)CC3)cc21 (some centres unmarked) [Example 356, 2-cyclopropyl-1-methyl-N-((1r,4r)-4-(3-(trifluoromethyl)piperazine-1-carbonyl)cyclohexyl)-1H-indole-6-sulfonamide] | 560 |
| C[C@@H](NC(=O)[C@H]1CC[C@H](NS(=O)(=O)c2cnc3ccccc3c2)CC1)c1ccccc1C(F)(F)F [Example 46, (1r,4R)-4-(quinoline-3-sulfonamido)-N-((R)-1-(2-(trifluoromethyl)phenyl)ethyl)cyclohexanecarboxamide] | 9040 |
| CCN(CC)c1ccc(Nc2nc3cc(S(=O)(=O)Nc4ccc(C(=O)OC(C)C)cc4)ccc3[nH]2)cc1 [Example 537, isopropyl 4-(2-(4-(diethylamino)phenylamino)-1H-benzo[d]imidazole-5-sulfonamido)benzoate] | 290 |
| COCc1ccc(-c2[nH]c3cc(S(=O)(=O)N[C@H]4CC[C@H](C(=O)N5CCOC[C@@H]5C5CC5)CC4)ccc3c2Cl)cc1 [Example 480, 3-chloro-N-((1S,4r)-4-((S)-3-cyclopropylmorpholine-4-carbonyl)cyclohexyl)-2-(4-(methoxymethyl)phenyl)-1H-indole-6-sulfonamide] | < 10 |
| Cn1c(C2CC2)c(Cl)c2ccc(S(=O)(=O)N[C@H]3CC[C@H](C(=O)N4CCN[C@@H](C(F)(F)F)C4)CC3)cc21 [Example 362, 3-chloro-2-cyclopropyl-1-methyl-N-((1R,4r)-4-((R)-3-(trifluoromethyl)piperazine-1-carbonyl)cyclohexyl)-1H-indole-6-sulfonamide] | 75 |
| C[C@@H](NC(=O)[C@H]1CC[C@H](NS(=O)(=O)c2ccc3nc(OCCN(C)C)ccc3c2)CC1)c1ccc(F)cc1 [Example 69, (1r,4R)-4-(2-(2-(dimethylamino)ethoxy)quinoline-6-sulfonamido)-N-((R)-1-(4-fluorophenyl)ethyl)cyclohexanecarboxamide] | 50 |
| C[C@@H](NC(=O)[C@H]1CC[C@H](NS(=O)(=O)c2ccc3[nH]c(C4CC4)nc3c2)CC1)c1ccccc1 [Example 277, (1r,4R)-4-(2-cyclopropyl-1H-benzo[d]imidazole-5-sulfonamido)-N-((R)-1-phenylethyl)cyclohexanecarboxamide] | 80 |
| C[C@H]1CCCCN1C(=O)[C@H]1CC[C@H](NS(=O)(=O)c2ccc3c(Cl)c(-c4ccc(CCC(=O)O)cc4)n(C)c3c2)CC1 [Example 416, 3-(4-(3-chloro-1-methyl-6-(N-((1S,4r)-4-((S)-2-methylpiperidine-1-carbonyl)cyclohexyl)sulfamoyl)-1H-indol-2-yl)phenyl)propanoic acid] | < 10 |
| O=C(NC1CCCc2ccccc21)[C@H]1CC[C@H](NS(=O)(=O)c2ccc3[nH]c(-c4ccccc4)nc3c2)CC1 (some centres unmarked) [Example 636, (1r,4r)-4-(2-phenyl-1H-benzo[d]imidazole-5-sulfonamido)-N-(1,2,3,4-tetrahydronaphthalen-1-yl)cyclohexanecarboxamide] | 1720 |
| C[C@@H](NC(=O)[C@H]1CC[C@H](NS(=O)(=O)c2ccc3cc(CCO)[nH]c3c2)CC1)c1ccc(F)cc1 [Example 305, (1r,4R)-N-((R)-1-(4-fluorophenyl)ethyl)-4-(2-(2-hydroxyethyl)-1H-indole-6-sulfonamido)cyclohexanecarboxamide] | 60 |
| CCOC(=O)C1CCCCN1C(=O)[C@H]1CC[C@H](NS(=O)(=O)c2ccc3cc(-c4ccc(COC)cc4)[nH]c3c2)CC1 (some centres unmarked) [Example 340, ethyl 1-((1r,4r)-4-(2-(4-(methoxymethyl)phenyl)-1H-indole-6-sulfonamido)cyclohexanecarbonyl)piperidine-2-carboxylate] | 255 |
| COC(=O)CCc1ccc(-c2cc3ccc(S(=O)(=O)N[C@H]4CC[C@H](C(=O)N5CCCC5C(C)(C)C)CC4)cc3n2C)cc1 (some centres unmarked) [Example 394, methyl 3-(4-(6-(N-((1r,4r)-4-(2-tert-butylpyrrolidine-1-carbonyl)cyclohexyl)sulfamoyl)-1-methyl-1H-indol-2-yl)phenyl)propanoate] | 15 |
| C[C@@H](NC(=O)[C@H]1CC[C@H](NS(=O)(=O)c2ccc3c(c2)N(C)C(C(=O)O)CC3)CC1)c1ccc(F)cc1 (stereo partly drawn) [Example 225, 7-(N-((1R,4r)-4-((R)-1-(4-fluorophenyl)ethylcarbamoyl)cyclohexyl)sulfamoyl)-1-methyl-1,2,3,4-tetrahydroquinoline-2-carboxylic acid] | 85 |
| C[C@@H](NC(=O)[C@H]1CC[C@H](NS(=O)(=O)c2ccc3nc(N(C)C)ccc3c2)CC1)c1ccc(F)cc1 [Example 53, (1r,4R)-4-(2-(dimethylamino)quinoline-6-sulfonamido)-N-((R)-1-(4-fluorophenyl)ethyl)cyclohexanecarboxamide] | 93 |
| Cc1cc(CO)ccc1-c1cc2ccc(S(=O)(=O)N[C@H]3CC[C@H](C(=O)N4CCNC(C(F)(F)F)C4)CC3)cc2[nH]1 (some centres unmarked) [Example 317, 2-(4-(hydroxymethyl)-2-methylphenyl)-N-((1r,4r)-4-(3-(trifluoromethyl)piperazine-1-carbonyl)cyclohexyl)-1H-indole-6-sulfonamide] | 25 |
| CC(C)[Si](C(C)C)(C(C)C)n1cc(Cl)c2ccc(S(=O)(=O)N[C@H]3CC[C@H](C(=O)N[C@H](C)c4ccc(F)cc4)CC3)cc21 [Example 116, (1r,4R)-4-(3-chloro-1-(triisopropylsilyl)-1H-indole-6-sulfonamido)-N-((R)-1-(4-fluorophenyl)ethyl)cyclohexanecarboxamide] | 13 |
| C[C@@H](NC(=O)[C@H]1CC[C@H](NC(=O)c2ccc3[nH]c(-c4ccccc4)nc3c2)CC1)c1ccc(F)cc1 [Example 662, N-((1R,4r)-4-((R)-1-(4-fluorophenyl)ethylcarbamoyl)cyclohexyl)-2-phenyl-1H-benzo[d]imidazole-5-carboxamide] | 32500 |
| C[C@@H](NC(=O)[C@H]1CC[C@H](NS(=O)(=O)c2cnc3c(c2)NCCN3C)CC1)c1ccc(F)cc1 [Example 142, (1r,4R)-N-((R)-1-(4-fluorophenyl)ethyl)-4-(4-methyl-1,2,3,4-tetrahydropyrido[3,2-b]pyrazine-7-sulfonamido)cyclohexanecarboxamide] | 68 |
